Usually IC50 stands for the point on the concentration scale where inhibition reaches its midpoint. A high value points to a need for much substance.

For the experiment, the target named is mGlyT-1b (Mus musculus (Mouse), UniProt P28571). Nature of the experiment: Glycine Uptake Inhibition Assay (mGlyT-1b). Format: cell-based. To be noted: [3H]-glycine uptake in Flp-in-CHO cells stably transfected with mGlyT1b cDNA; 20 min preincubation at 22° C. As to the method: DMEM complete medium: Nutrient mixture F-12 (Gibco Life-technologies), fetal bovine serum (FBS) 5%, (Gibco life technologies), Penicillin/Streptomycin 1% (Gibco life technologies), Hygromycin 0.6 mg/ml (Gibco life technologies), Glutamine 1 mM Gibco life technologies)
Chain of mGlyT-1b (P28571 other isoform, or with tags, fused parts or gaps isoform P28571-2): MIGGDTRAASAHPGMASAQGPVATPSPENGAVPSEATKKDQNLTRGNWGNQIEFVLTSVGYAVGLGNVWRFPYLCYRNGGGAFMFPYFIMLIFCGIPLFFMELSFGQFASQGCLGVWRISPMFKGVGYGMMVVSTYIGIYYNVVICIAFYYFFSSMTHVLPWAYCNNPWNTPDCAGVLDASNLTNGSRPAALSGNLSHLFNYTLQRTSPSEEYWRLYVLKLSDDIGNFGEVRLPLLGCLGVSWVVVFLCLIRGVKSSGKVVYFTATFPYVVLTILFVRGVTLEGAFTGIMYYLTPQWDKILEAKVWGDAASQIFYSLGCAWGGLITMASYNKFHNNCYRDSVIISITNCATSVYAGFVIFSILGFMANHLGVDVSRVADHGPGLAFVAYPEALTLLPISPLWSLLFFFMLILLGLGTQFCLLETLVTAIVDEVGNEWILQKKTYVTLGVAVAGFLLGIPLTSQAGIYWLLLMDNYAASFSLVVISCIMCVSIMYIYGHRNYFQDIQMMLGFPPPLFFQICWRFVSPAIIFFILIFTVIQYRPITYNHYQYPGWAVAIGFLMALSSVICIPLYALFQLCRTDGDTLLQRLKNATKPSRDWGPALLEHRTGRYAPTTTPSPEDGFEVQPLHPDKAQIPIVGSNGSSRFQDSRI
Uptake buffer (UB): 150 mM NaCl, 10 mM Hepes-Tris, pH 7.4, 1 mM CaCl2, 2.5 mM KCl, 2.5 mM MgSO4, 10 mM (+) D-glucose.
Flp-in™-CHO (Invitrogen Cat no R758-07) cells stably transfected with mGlyT1b cDNA.
Glycine Uptake Inhibition Assay (mGlyT-1b)
On day 1 mammalian cells, (Flp-in™-CHO), transfected with mGlyT-1b cDNA, were plated at the density of 40,000 cells/well in complete F-12 medium, without hygromycin in 96-well culture plates. On day 2, the medium was aspirated and the cells were washed twice with uptake buffer (UB). The cells were then incubated for 20 min at 22° C. with either (i) no potential competitor, (ii) 10 mM non-radioactive glycine, (iii) a concentration of a potential inhibitor. A range of concentrations of the potential inhibitor was used to generate data for calculating the concentration of inhibitor resulting in 50% of the effect (e.g. IC50, the concentration of the competitor inhibiting glycine uptake of 50%). A solution was then immediately added containing [^3H]-glycine 60 nM (11-16 Ci/mmol) and 25 μM non-radioactive glycine. The plates were incubated with gentle shaking and the reaction was stopped by aspiration of the mixture and washing (three times) with ice-cold UB. The cells were lysed with scintillation liquid, shaken 3 hours and the radioactivity in the cells was counted using a scintillation counter.
On to `CCc1cc(C(F)(F)F)cc(OC)c1C(=O)N[C@@H]1COCC[C@H]1N1CCCC1` [Example 56, (−)-2-Ethyl-6-methoxy-N-(4-pyrrolidin-1-yl-tetrahydro-pyran-3-yl)-4-trifluoro-methyl-benzamide], for which the IC50 was 15.5 nM.

`COc1cc(C(F)(F)F)cc(C2CC2)c1C(=O)N[C@H]1COCC[C@@H]1N1CCCC1` [Example 57] came in with a 50% inhibitory concentration (IC50) of 62.5 nM.

The compound `COc1cc(C(F)(F)F)cc(C2CC2)c1C(=O)N[C@@H]1COCC[C@H]1N1CCCC1` [Example 58] had an IC50 of 7.6 nM.

In turn, `COc1cc(C(F)(F)F)cc(SC)c1C(=O)N[C@H]1CCOC[C@H]1N1CCCC1` [Example 64, (−)-2-Methoxy-6-methylsulfanyl-N-(3-pyrrolidin-1-yl-tetrahydro-pyran-4-yl)-4-trifluoro-methyl-benzamide] returned an IC50 of 189 nM.

On to `COc1cc(C(F)(F)F)cc(SC)c1C(=O)N[C@@H]1CCOC[C@@H]1N1CCCC1` [Example 65, (+)-2-Methoxy-6-methylsulfanyl-N-(3-pyrrolidin-1-yl-tetrahydro-pyran-4-yl)-4-trifluoro-methyl-benzamide], for which inhibition was half-maximal at 119 nM (IC50).

Values taken from US8524909B2, “Tetrahydro-pyran derivatives” (Hoffmann-La Roche Inc., priority 2010, dated 2013).
